For data set [1], the system named is Acinetobacter baumannii. In words: Antibacterial activity against Acinetobacter baumannii AB1901 clinical isolate incubated for 18 to 24 hrs by broth microdilution method. Format: functional.
Data set [2] has as its system Acinetobacter baumannii. The data set can be described thus: Antibacterial activity against Acinetobacter baumannii AB1902 clinical isolate incubated for 18 to 24 hrs by broth microdilution method. The data set is classed as functional.
Data set [3] relates to Escherichia coli. The data set can be described thus: Inhibition of swimming motility of Escherichia coli ATCC 25922 at 1 to 4 uM after 16 hrs. The data set is classed as functional, organism-based.
In data set [4] the test system is Lipopolysaccharide (LPS). The data set can be described thus: Displacement of BODIPY-TR-cadaverine from Escherichia coli O111:B4 LPS by spectrofluorophotometric method.
Data set [5] deals with Erythrocyte. The data set can be described thus: Haemolytic activity in human erythrocytes assessed as lowest concentration causing 5% hemolysis after 1 hr. The data set is classed as ADME, cell-based.
Data set [6] has as its system Pseudomonas aeruginosa. In words: Antibacterial activity against Pseudomonas aeruginosa PAO1 at sub-MIC treated over 35 serial passages by resistant development assay. The data set is classed as functional, organism-based.
In data set [7] the test system is Escherichia coli. The data set can be described thus: Resistance index, ratio of MIC for antibacterial activity against Escherichia coli ATCC 25922 treated over 35 serial passage by sequential passaging method to MIC for antibacterial activity against Escherichia coli ATCC 25922 incubated for 18 to 24 hrs by broth microdilution method. Format: functional.
Data set [8] concerns Escherichia coli. In words: Induction of cytoplasmic membrane depolarization in Escherichia coli UB1005 at 2 uM by DiSC3-5 dye based fluorescence method. The data set is classed as organism-based.
Data set [9] has as its system Escherichia coli. In words: Induction of outer membrane permeabilization in Escherichia coli UB1005 assessed as increase in NPN uptake at 0.5 to 4 uM by spectrofluorophotometric assay. Format: organism-based.
The test system of data set [10] is Salmonella typhimurium. In words: Antibacterial activity against Salmonella enterica serovar typhimurium C77-31 incubated for 18 to 24 hrs by broth microdilution method. The following applies: Salmonella enterica subsp. enterica serovar Typhimurium. The data set is classed as functional.
Data set [11] deals with Pseudomonas aeruginosa. The data set can be described thus: Antibacterial activity against Pseudomonas aeruginosa 25349 clinical isolate incubated for 18 to 24 hrs by broth microdilution method. The data set is classed as functional.
A short description of data set [12]: Resistance index, ratio of MIC for antibacterial activity against ciprofloxacin-resistant Escherichia coli to MIC for Escherichia coli ATCC 25922 incubated for 18 to 24 hrs by broth microdilution method. Format: functional.
Data set [13] concerns Staphylococcus aureus. The data set can be described thus: Antibacterial activity against Staphylococcus aureus ATCC 25923 incubated for 18 to 24 hrs by broth microdilution method. Format: functional.
Data set [14] deals with Escherichia coli. In words: Antibacterial activity against Escherichia coli 20411 clinical isolate incubated for 18 to 24 hrs by broth microdilution method. Format: functional.
Data set [15] has as its system Staphylococcus epidermidis. The data set can be described thus: Antibacterial activity against Staphylococcus epidermidis ATCC 12228 incubated for 18 to 24 hrs by broth microdilution method. The data set is classed as functional.
In data set [16] the test system is Escherichia coli. The data set can be described thus: Antibacterial activity against Escherichia coli ATCC 25922 incubated for 18 to 24 hrs by broth microdilution method. Format: functional.
For data set [17], the system named is Escherichia coli. In words: Antibacterial activity against ciprofloxacin-resistant Escherichia coli ATCC 25922 incubated for 18 to 24 hrs. The data set is classed as functional.
Data set [18] concerns Escherichia coli. In words: Antibacterial activity against Escherichia coli UB1005 incubated for 18 to 24 hrs by broth microdilution method. The data set is classed as functional.
The test system of data set [19] is Staphylococcus aureus. In words: Antibacterial activity against Staphylococcus aureus 11011 incubated for 18 to 24 hrs by broth microdilution method. The data set is classed as functional.
The test system of data set [20] is Staphylococcus aureus. The data set can be described thus: Antibacterial activity against Staphylococcus aureus ATCC 29213 incubated for 18 to 24 hrs by broth microdilution method. Format: functional.

In brackets after ≈: the same amount, converted by molar mass. Activity calls are given as the source filed them. The rule behind the calls is not given here.

Take `CC[C@H](C)[C@H](NC(=O)CN)C(=O)NCC(=O)N[C@@H](C)C(=O)N[C@H](C(=O)N[C@@H](CC(C)C)C(=O)N[C@@H](CCCCN)C(=O)N[C@H](C(=O)N[C@@H](CC(C)C)C(=O)N[C@H](C(=O)N[C@H](C(=O)NCC(=O)N[C@@H](CC(C)C)C(=O)N1CCC[C@H]1C(=O)N[C@@H](C)C(=O)N[C@@H](CC(C)C)C(=O)N[C@H](C(=O)N[C@@H](CO)C(=O)N[C@@H](Cc1c[nH]c2ccccc12)C(=O)N[C@H](C(=O)N[C@@H](CCCCN)C(=O)N[C@@H](CCCNC(=N)N)C(=O)N[C@@H](CCCCN)C(=O)N[C@@H](CCCNC(=N)N)C(=O)N[C@@H](CCC(N)=O)C(=O)N[C@@H](CCC(N)=O)C(N)=O)[C@@H](C)CC)[C@@H](C)CC)[C@@H](C)O)[C@@H](C)O)C(C)C)C(C)C` [MELITTIN]: the minimal inhibitory concentration (MIC) in data set [1] and in [2] was 2 µM (≈ 5.69 µg/mL) in each case. Further, in data set [3], the inhibition entry is “Active”. In addition, the Activity result in [4] was “Dose-dependent effect”. The MHC in [5] turned out to be 0.25 µM. Besides, in data set [6], the result was inactive. Besides, the Ratio in [7] was determined as 4. The outcome in [8] and in [9] was Active.
On to COLISTIN, for which the MIC in data set [10] amounted to 0.5 µM; in [1], 1 µM; in data set [2], 0.5 µM; in [11], 0.5 µM; in [13], 128 µM; in [14], 0.5 µM. In addition, the MIC worked out at 64 µM in [15]; 0.5 µM in data set [16]; 0.5 µM in data set [17]; 0.5 µM in data set [18]; 32 µM in [19]; 128 µM in [20]. Moreover, the Ratio in data set [12] turned out to be 1.
Turning to GENTAMICIN, the minimal inhibitory concentration (MIC) in [10] was 8 µM; in data set [1] it was greater than 128 µM; in data set [2], greater than 128 µM; in data set [11], 2 µM; in data set [13] it was 0.25 µM; in data set [14] it was 1 µM. Besides, the minimal inhibitory concentration (MIC) in data set [15] was 0.5 µM; in data set [16], 4 µM; in [17], 4 µM; in data set [18] it was 4 µM; in data set [19] it was 1 µM; in data set [20] it was 0.5 µM. Besides, the Ratio in [12] was 1.

(Values after ChEMBL document CHEMBL4311942, “Design of Trp-Rich Dodecapeptides with Broad-Spectrum Antimicrobial Potency and Membrane-Disruptive Mechanism” (J Med Chem, 2019).)
